Entries after “also recorded” stand apart in the source; their conditions may differ.
Assays:
[1] = target: T1, peripheral benzodiazepine receptors (Rattus norvegicus, UniProt P16257); assay: In vivo blocking / competition of tracer uptake by pre-treatment with PBR and CBR ligands; conditions: rats; for Tracer uptake after pre-treatment with PK 11195 / Tracer uptake in the adrenals after pre-treatment with PK 11195: PK 11195 1 mg/kg 5 min prior to tracer; for Tracer uptake after pre-treatment with PK 11195 / Tracer uptake after pre-treatment with Ro 5-4864: PBR-expressing tissues (brain/peripheral organs, adrenals apart); for Tracer uptake after pre-treatment with Ro 5-4864 / Tracer uptake in the adrenals after pre-treatment with Ro 5-4864: Ro 5-4864 1 mg/kg 5 min prior to tracer; for Tracer uptake after pre-treatment with flumazenil (central benzodiazepine ligand): flumazenil 1 mg/kg 5 min prior to tracer, brain or peripheral organs; for Tracer uptake after pre-treatment with the non-radioactive analogue: non-radioactive analogue 1 mg/kg, PBR-expressing tissues
T1 construct: high uptake in the tissues which have known PBR sites; from tissue; host or cells: organs of living SD rats (brain and peripheral tissues), in vivo
How it was run: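 SD rats received PBR ligands PK11195 or Ro 5-4864, or the CBR ligand flumazenil, at 1 mg/kg 5 min before tracer injection. Brain and peripheral tissue uptake analysed at 15, 30 min, 1 and 4 h p.i.; significance set at p<0.05 and p<0.01 versus normals or controls.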

[2] = target: central benzodiazepine receptors; assay: In vitro binding, [3H]-Flumazenil, brain cortex membrane preparation; conditions: [3H]-Flumazenil (2 nM), 25° C., 45 min, read-out: CBR IC50
How it was run: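 Brain cortex membranes bound with [3H]-flumazenil; non-specific binding defined by 20 μM flumazenil. Filtration on GF/B, washes in ice-cold 50 mM Tris/HCl pH 7.4, bound counts by scintillation, IC50 derived from displacement.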

[3] = target: T2, peripheral benzodiazepine binding site (Rattus norvegicus, UniProt P16257); assay: In vitro binding, [3H]-PK11195, kidney membrane preparation; conditions: PBR IC50 (nM), [3H]-PK11195 (2 nM), 4° C., 1 h
T2 construct: diluted kidney membrane preparation (200 μg); from tissue; host or cells: kidney membrane preparation
Protocol: Non-specific binding was determined with PK11195 (10 μM).
Non-specific binding was determined with Flumazenil (20 μM). In both cases, incubations were terminated by rapid filtration through Whatman GF/B glass fibre. Filters were immediately washed 3 times with 5 mL ice-cold 50 mM Tris/HCl at pH 7.4. Filters were counted in a β-scintillation counter (Packard) to measure the amount of bound radioactivity. The IC50 of the compounds for the peripheral benzodiazepine binding site and the central benzodiazepine receptor were calculated using Kell 6 software.

CCN(CC)C(=O)Cc1c(-c2ccc(OCCCF)cc2)nc2ccc(Cl)cn12 [PBR111, 2-(2-(4-(3-fluoropropoxy)phenyl)-6-chloroimidazo[1,2-a]pyridin-3-yl)-N,N-diethylacetamide]
Tracer uptake in the olfactory regions after pre-treatment with PK 11195 and Ro 5-4864 ([1]; 1 mg/kg 5 min prior to tracer, olfactory regions): non-significant decrease | Tracer uptake after pre-treatment with PK 11195 [1]: decreased | Tracer uptake after pre-treatment with PK 11195 ([1]; listed as [^18F]PBR111): reduced uptake; also recorded: blocking effect | Tracer uptake in the adrenals after pre-treatment with PK 11195 [1]: increase | Tracer uptake after pre-treatment with Ro 5-4864 [1]: decreased | Tracer uptake after pre-treatment with Ro 5-4864 ([1]; listed as [^18F]PBR111): reduced uptake; also recorded: blocking effect | Tracer uptake in the adrenals after pre-treatment with Ro 5-4864 [1]: increase | Tracer uptake after pre-treatment with flumazenil (central benzodiazepine ligand) [1]: no effect | Tracer uptake after pre-treatment with flumazenil (central benzodiazepine ligand) ([1]; listed as [^18F]PBR111): does not compete; also recorded: does not reduce | Tracer uptake after pre-treatment with the non-radioactive analogue ([1]; listed as [^18F]PBR111): reduced uptake; also recorded: blocking effect | IC50 [2]: 1590 nM | IC50 [3]: 7.5 nM | chromatographic logP (LogP HPLC): 3.2 ± 0.1

CCN(CC)C(=O)Cc1c(-c2ccc(OCCF)cc2)nc2ccc(Cl)cn12 [PBR102, 2-(2-(4-(2-fluoroethoxy)phenyl)-6-chloroimidazo[1,2-a]pyridin-3-yl)-N,N-diethylacetamide]
Tracer uptake after pre-treatment with PK 11195 [1]: decreased | Tracer uptake after pre-treatment with PK 11195 ([1]; listed as [^18F]PBR102): blocking effect | Tracer uptake in the adrenals after pre-treatment with PK 11195 [1]: increase | Tracer uptake after pre-treatment with Ro 5-4864 [1]: decreased | Tracer uptake after pre-treatment with Ro 5-4864 ([1]; listed as [^18F]PBR102): blocking effect | Tracer uptake in the adrenals after pre-treatment with Ro 5-4864 [1]: increase | Tracer uptake after pre-treatment with flumazenil (central benzodiazepine ligand) [1]: no effect | Tracer uptake after pre-treatment with flumazenil (central benzodiazepine ligand) ([1]; listed as [^18F]PBR102): does not reduce | Tracer uptake after pre-treatment with the non-radioactive analogue [1]: blocking effect | IC50 [2]: 1560 nM | IC50 [3]: 13.2 nM | chromatographic logP (LogP HPLC): 2.7 ± 0.09
